For orientation: IC50 means the concentration at which inhibition is half-maximal.

This assay has as its target T1, recombinant human glucagon receptor (Homo sapiens, UniProt P47871).
T1 construct: expressed in transfected cells; host or cells: CHO (Chinese hamster ovary) cells
Briefly: Inhibition of glucagon-stimulated intracellular cAMP assay. Particulars: CHO cells expressing recombinant human glucagon receptor, stimulated with 300 pM glucagon. It is filed as cell-based. The protocol: Inhibition of Glucagon-Stimulated Intracellular cAMP Assay
Chinese hamster ovary (CHO) cells expressing the recombinant human glucagon receptor were harvested with the aid of non-enzymatic cell dissociation solution (GIBCO 13151-014). The cells were then pelleted and suspended in the stimulation buffer (1×HBSS, 5 mM Hepes, 0.1% BSA, pH7.4 in presence of complete protease inhibitor and phosphodiesterase inhibitor). The adenylate cyclase assay was conducted following the LANCE cAMP Kit (Perkin Elmer, AD0262) instructions. Briefly, cells were preincubated with anti-cAMP antibody in the stimulation buffer with a final concentration of 3% DMSO for 30 minutes and then stimulated with 300 pM glucagon for 45 minutes. The reaction was stopped by incubating with the detection buffer containing Europium chelate of the Eu-SA/Biotin-cAMP tracer for 20 hours. The fluorescence intensity emitted from the assay was measured at 665 nm using PheraStar instruments. […] Standard cAMP concentrations were conducted concurrently for conversion of fluorescence signal to cAMP level. Data was analyzed using GraphPad Prism. IC50 values were calculated using non-linear regression analysis assuming single site competition. […] Some of the compounds of the invention shown in the examples measured less than about 5 μM in this assay; other examples measured less than about 500 nM; others less than about 100 nM.
(Cyclic AMP is a second messenger, typically raised through Gs and lowered through Gi signalling.)

T1 sequence (P47871 26-477): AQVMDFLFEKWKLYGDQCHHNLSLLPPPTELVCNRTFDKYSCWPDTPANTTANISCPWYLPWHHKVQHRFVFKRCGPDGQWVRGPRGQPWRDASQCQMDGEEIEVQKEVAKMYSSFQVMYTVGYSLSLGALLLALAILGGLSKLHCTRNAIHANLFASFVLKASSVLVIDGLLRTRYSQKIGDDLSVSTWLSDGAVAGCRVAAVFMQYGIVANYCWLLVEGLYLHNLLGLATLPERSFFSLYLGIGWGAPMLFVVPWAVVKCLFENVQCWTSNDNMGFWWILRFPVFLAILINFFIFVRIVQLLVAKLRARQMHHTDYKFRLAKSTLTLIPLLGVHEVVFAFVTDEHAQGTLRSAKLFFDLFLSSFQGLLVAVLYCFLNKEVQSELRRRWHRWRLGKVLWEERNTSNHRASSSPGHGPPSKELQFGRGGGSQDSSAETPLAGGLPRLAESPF

In the case of `CC(C)(C)CC[C@H](c1ccc(C(=O)NCc2nn[nH]n2)cc1)N1C(=O)C(C2CCCCC2)=NC12CCC(C(C)(C)C)CC2` (some centres unmarked) [Example 9.99], the IC50 was determined as 290 nM. In the case of `CC[C@H](c1ccc(C(=O)NCCC(=O)O)cc1)N1C(=O)C(N2CCCCC2)=NC12CCC(C(C)(C)C)CC2` (some centres unmarked) [Example 10.4], the IC50 was found to be 209 nM.

Source of the values: patent publication US20130012493A1, “NOVEL SPIRO IMIDAZOLONE DERIVATIVES AS GLUCAGON RECEPTOR ANTAGONISTS, COMPOSITIONS, AND METHODS FOR THEIR USE” (priority 2010, published 2013).
